Measured values taken from patent US10463664B2, “Inhibitors of HSV nucleotidyl transferases and uses therefor” (Saint Louis University, priority 2013, dated 2019).
Where “and” joins values, the source holds several entries; their conditions need not be identical. Equal values may be shown once. Read-outs that look alike come from different tables or passages of the source.

Assays:
HSV-1 [1] = test: Anti-HSV-1 replication assay in Vero cells, titer by plaque assay; format: cell-based, herpes simplex virus 1; conditions: for Anti-HSV-1 Log10 suppression 5 μM / Anti-HSV-1 Log10 suppression 50 μM / EC50: moi 0.1, 24 h; for Anti-HSV-1 Log10 suppression 5 μM / Anti-HSV-1 Log10 suppression 50 μM: relative to DMSO; for Control of HSV-1 replication after high moi infection: moi 5, 5 μM
In short: (§1)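 Well lysates titered by plaque assay on Vero cells versus DMSO controls; EC50 by non-linear fit from serial dilutions starting at 50 μM.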

HSV-2 [2] = test: Anti-HSV-2 replication assay in Vero cells, titer by plaque assay; format: cell-based, herpes simplex virus 2; conditions: for Anti-HSV-2 Log10 suppression 5 μM / Anti-HSV-2 Log10 suppression 50 μM: relative to DMSO; for Control of HSV-2 replication after high moi infection: moi 5, 5 μM, 24 h
In short: as §1

HBV RNaseH = biological target: T1, HBV RNaseH (Hepatitis B virus genotype A2 subtype adw2, UniProt P03159); test: Biochemical inhibition of HBV RNaseH (oligonucleotide-directed RNA cleavage assay); conditions: compounds at 60, 20 or 10 μM
T1 construct: One of the inventors recently produced active recombinant HBV RNase H; hexahistidine; made in house; host or cells: E. coli
T1 sequence (P03159 693-845): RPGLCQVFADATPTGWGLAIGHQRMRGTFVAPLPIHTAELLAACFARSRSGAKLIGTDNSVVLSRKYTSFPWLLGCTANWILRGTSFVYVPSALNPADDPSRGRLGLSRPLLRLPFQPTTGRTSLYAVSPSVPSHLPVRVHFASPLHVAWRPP
In short: (§2)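 A DNA oligonucleotide was annealed to internally ^32P-labeled RNA, and the heteroduplex was incubated with enzyme alongside compounds at 60, 20 or 10 μM. Cleavage products were resolved by electrophoresis and detected by autoradiography, then quantified against DMSO vehicle reactions.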

human RNaseH1 = biological target: T2, human RNaseH1 (Homo sapiens, UniProt O60930); test: Biochemical inhibition of human RNaseH1 (oligonucleotide-directed RNA cleavage assay); conditions: for Anti-Human RNaseH1: compounds at 60, 20 or 10 μM
T2 construct: hexahistidine; made in house; host or cells: E. coli
T2 sequence (O60930 1-286): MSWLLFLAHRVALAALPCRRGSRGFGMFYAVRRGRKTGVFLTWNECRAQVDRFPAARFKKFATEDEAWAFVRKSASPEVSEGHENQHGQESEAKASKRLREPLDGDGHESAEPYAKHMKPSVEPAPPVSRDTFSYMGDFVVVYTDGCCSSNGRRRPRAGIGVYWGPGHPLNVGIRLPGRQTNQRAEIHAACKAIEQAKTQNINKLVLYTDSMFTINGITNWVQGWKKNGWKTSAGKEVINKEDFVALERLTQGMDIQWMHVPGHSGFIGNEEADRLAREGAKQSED
In short: as §2

HSV-1 [3] = test: HSV-1 replication inhibition in primary human foreskin fibroblasts; format: cell-based, herpes simplex virus 1; conditions: HFF cells; for Replication inhibition HSV-1 5 μM / Replication inhibition HSV-1 50 μM: relative to DMSO-treated control
In short: (§3)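 Confluent primary HFF monolayers infected at MOI 0.1 with compound present (50 μM and 5 μM final), 1 h at 37 °C; inoculum removed, compound re-added and incubated a further 23 h. Whole-well virus yield at 24 h post-infection titrated by plaque assay on Vero cells; DMSO diluent controls included. EC50 from serial dilutions starting at 50 μM, non-linear curve fit.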

HSV-2 [4] = test: HSV-2 replication inhibition in primary human foreskin fibroblasts; format: cell-based, herpes simplex virus 2; conditions: for EC50 / Replication inhibition HSV-2 5 μM / Replication inhibition HSV-2 50 μM: HFF cells; for Replication inhibition HSV-2 5 μM / Replication inhibition HSV-2 50 μM: relative to DMSO-treated control
In short: as §3

HCMV strain AD169 = test: HCMV plaque reduction assay in HFFs; format: cell-based, human cytomegalovirus; conditions: 10 days, read-out: EC50 against HCMV, plaque reduction assay
Procedure: HCMV plaque reduction EC50 and toxicity assays. Low passage primary HFFs were infected with HCMV strain AD169 in the presence of serial dilutions of the compounds from 0.032 to 100 μM. Ten days later the monolayers were stained with 1% neutral red solution in PBS. After rinsing, plaques were counted using a stereomicroscope and the EC50 was interpolated from the data. Cytotoxicity was measured using a plate-based assay in which compounds were added to HFFs at 0.032 to 100 μM. At the end of the incubation period, plates were stained for 1 h with a neutral red solution in PBS. The stain was then removed, the plates rinsed in PBS and dried, and dye internalized by viable cells was determined at OD550. CC50 values were interpolated from the data.
Compounds #41, 46, 49, 55, 56, and 59 and the FDA-approved, anti-HCMV drug ganciclovir were subsequently evaluated with plaque reduction and toxicity assays in HFFs. HFFs were infected with HCMV in the presence of serial dilutions of the compounds. After 10 days the cultures were stained with neutral red and plaques were counted. Compound cytotoxicity for uninfected cells was determined in the same manner except that neutral red uptake by viable cells was measured by optical density. […] The TI values for the five NTS inhibitors of HCMV ranged from 5 for compound #46 to 17 for #55 and 59. Therefore, NTS inhibitors can suppress HCMV replication in addition to inhibiting the HSVs.

[5] = Human alphaherpesvirus 1, Vero, 24 h

| Compound | Anti-HSV-1 Log10 suppression 5 μM (HSV-1 [1]; 5 μM) | Anti-HSV-1 Log10 suppression 50 μM (HSV-1 [1]) | EC50 (HSV-1 [1]) | Anti-HSV-2 Log10 suppression 5 μM (HSV-2 [2]; 5 μM, moi 0.1, 24 h) | Anti-HSV-2 Log10 suppression 50 μM (HSV-2 [2]; moi 0.1, 24 h) | EC50 (HSV-2 [2]; moi 0.1, 24 h) | Anti-HBV RNaseH (HBV RNaseH) | Anti-Human RNaseH1 (human RNaseH1) | EC50 (HSV-1 [3]) | Replication inhibition HSV-1 5 μM (HSV-1 [3]) | Replication inhibition HSV-1 50 μM (HSV-1 [3]) | EC50 (HSV-2 [4]) | Replication inhibition HSV-2 5 μM (HSV-2 [4]; 5 μM) | Replication inhibition HSV-2 50 μM (HSV-2 [4]) | EC50 (HCMV strain AD169) | Control of HSV-1 replication after high moi infection (HSV-1 [1]; 24 h) | Control of HSV-2 replication after high moi infection (HSV-2 [2]) | further results |
| --- | --- | --- | --- | --- | --- | --- | --- | --- | --- | --- | --- | --- | --- | --- | --- | --- | --- | --- |
| C=C(C)C1CCc2c(c(C)cc(O)c(=O)c2O)C1 (stereo not drawn) [Compound 56, Manicol] | 5.14 log10 | 5.82 log10 | 350 nM | 5.95 log10 | 5.79 log10 | 580 nM | +++ (inhibition at 10 μM) | − (no inhibition at 60 μM) | 240 nM | 5.72 log10 | 6.39 log10 | 550 nM | 5.93 log10 | 6.80 log10 | 2660 nM |  |  | HSV-1 replication inhibition, fold (HSV-1 [1]; 5 μM): 138,000 fold; HSV-2 replication inhibition, fold (HSV-2 [2]; 5 μM): 891,000 fold |
| CC(C)=CCc1ccc(O)c(=O)cc1C(C)C [Compound 49, Nootkatin] |  | 4.72 log10 | 240 nM |  | 5.05 log10 | 190 nM and 220 nM | − (no inhibition at 60 μM) | − (no inhibition at 60 μM) | 740 nM | 5.79 log10 | 6.27 log10 | 1230 nM | 5.47 log10 | 5.98 log10 | 450 nM |  |  |  |
| CCOc1ccc(-c2c3cc(O)c(=O)cc-3oc3cc(O)c(O)cc23)cc1 [Compound 30] | 1.39 log10 | 4.02 log10 | 5930 nM and 4200 nM | 3.69 log10 | 4.55 log10 | 3930 nM | +++ (inhibition at 10 μM) | +++ (inhibition at 10 μM) | 320 nM | 3.22 log10 | 5.23 log10 | 520 nM | 2.04 log10 | 6.68 log10 |  |  |  | Fold more active against HSV-2 than HSV-1 (HSV-2 [2]; 5 μM): > 100 fold; Concentration giving inhibition of purified human RNaseH 1 (human RNaseH1): < 60 µM; Fold less effective inhibition of HSV-2 in HFF cells than in Vero cells (HSV-2 [4]; 5 μM): ~45 fold |
| CC(C)c1ccc(O)c(=O)c(O)c1 [Compound 46, Beta-thujaplicinol] |  | 4.81 log10 | 1940 nM |  | 5.12 log10 | 1690 nM | +++ (inhibition at 10 μM) | + (inhibition at 60 μM) | 970 nM | 5.83 log10 | 6.39 log10 | 380 nM | 5.17 log10 | 5.83 log10 | 1300 nM | efficiently controlled virus replication | efficiently controlled virus replication |  |
| Nc1nc2c(ncn2COCCO)c(=O)[nH]1 [ACV, Acyclovir, reference compound] | 4.49 log10 | 5.85 log10 |  | 3.91 log10 | 5.25 log10 |  | − (no inhibition at 60 μM) | − (no inhibition at 60 μM) |  | 5.25 log10 | 6.69 log10 |  | 4.01 log10 | 6.27 log10 |  | efficiently controlled virus replication | efficiently controlled virus replication | EC50 (HSV-1 [1]; [5]): 210 nM; EC50 (HSV-1 [3]; Human alphaherpesvirus 1): 120 nM; EC50 (HSV-2 [4]; Human alphaherpesvirus 2): 120 nM |
| CC(=O)NC(CCc1ccc(Cl)c(Cl)c1)c1cccc(O)c(=O)c1 (stereo not drawn) [Compound 55] |  | 5.04 log10 | 420 nM |  | 5.06 log10 | 1070 nM | + (inhibition at 60 μM) | + (inhibition at 60 μM) | 2810 nM | 4.99 log10 | 6.17 log10 | 1670 nM | 3.94 log10 | 6.55 log10 | 470 nM | efficiently controlled virus replication | efficiently controlled virus replication |  |
| Cc1cc(C2CCCCC2)n(O)c(=O)c1 [Compound 41, Ciclopirox, reference compound] |  | 5.23 log10 |  |  | 5.25 log10 |  | − (no inhibition at 60 μM) | + (inhibition at 60 μM) |  | 5.06 log10 | 5.57 log10 |  | 5.21 log10 | 4.97 log10 |  |  |  | EC50 (HSV-1 [1]; [5]): 270 nM; Inhibition of HSV-1 replication (in words) (HSV-1 [1]; primary screening): strong inhibitor; EC50 (HSV-2 [2]; Human alphaherpesvirus 2, moi 0.1, 24 h): 450 nM; Inhibition of HSV-2 replication (in words) (HSV-2 [2]; primary screening): strong inhibitor; EC50 (HSV-1 [3]; Human alphaherpesvirus 1): 140 nM; Suppression of HSV-2 replication, ciclopirox versus its salt (HSV-2 [4]; HFFs, various concentrations, 24 hours): equivalent extent; EC50 (HSV-2 [4]; Human alphaherpesvirus 2): 1000 nM; EC50 (HCMV strain AD169; Human betaherpesvirus 5, AD169, 240 h): 330 nM |
